Measurements taken from US12637425B2, “Compounds and formulations for treating ophthalmic diseases” (Visus Therapeutics, Inc., priority 2020, dated 2026).

Molecular target: T1, Recombinant cryAB(R120G) protein (Homo sapiens, UniProt P02511, R120G)
T1 sequence (P02511 1-175 R120G): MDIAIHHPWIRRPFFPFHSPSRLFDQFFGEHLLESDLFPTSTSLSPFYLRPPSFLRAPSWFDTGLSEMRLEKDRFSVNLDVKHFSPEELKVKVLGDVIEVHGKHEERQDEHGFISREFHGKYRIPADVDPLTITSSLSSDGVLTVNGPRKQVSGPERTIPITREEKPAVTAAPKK
Experiment: Kinetic turbidity aggregation assay of recombinant cryAB(R120G)
Format: biochemical
Details: for inhibition at 25 µM: read-out: % Inhibition of Protein Aggregation, 25 μM cmpd; for inhibition at 100 µM: 100 μM compound, read-out: % Inhibition of Protein Aggregation, 100 μM cmpd; for inhibition at 400 µM: 400 μM compound, read-out: % Inhibition of Protein Aggregation, 400 μM cmpd; for IC50: inhibition of cryAB(R120G) protein aggregation
Protocol: Example A-1: Kinetic Turbidity Aggregation Assay of Recombinant cryAB(R120)
Recombinant cryAB(R120G) protein was diluted to 100 μM in assay buffer (50 mM Tris, 100 mM NaCl, 5 mM DTT, 0.01% Triton X-100, 0.05% PEG-8000). Compounds were dissolved in DMSO at 10 mM then typically diluted to 2.5 mM in DMSO and serially diluted 2-fold as necessary. To a 384-well black microplate in quadruplicate was added 81 μL assay buffer, followed by 15 μL protein solution, and 4 μL compound to give a final concentration of 15 μM cryAB(R120G) protein in 4% DMSO. […] N.D. is not determined.

[1] = 25 μM compound, 15 μM cryAB(R120G), 42° C., absorbance at 550 nm
[2] = 15 μM cryAB(R120G), 42° C., absorbance at 550 nm

Row | Structure (SMILES) | inhibition at 25 µM [1] [%] | inhibition at 100 µM [2] [%] | inhibition at 400 µM [2] [%] | IC50 [µM] | % Inhibition of Protein Aggregation, 25 μM cmpd [1] [%]
1 | CC(=O)N[C@@H]1CCN(C(CNS(=O)(=O)c2ccc3cc[nH]c3c2)c2cn(C)c3ccccc23)C1 (stereo partly drawn) [Compound 62, N-((3R)-1-(2-(1H-indole-6-sulfonamido)-1-(1-methyl-1H-indol-3-yl)ethyl)pyrrolidin-3-yl)acetamide] | -39 | 53.1 | – | – | –
2 | CN(C)C(CNS(=O)(=O)c1ccc2cn[nH]c2c1)c1cn(C)c2ccccc12 (stereo not shown) [Compound 7, N-(2-(dimethylamino)-2-(1-methyl-1H-indol-3-yl)ethyl)-1H-indazole-6-sulfonamide] | -21 | -32 | 56.6 | – | –
3 | CN(C)C(CNS(=O)(=O)c1ccc2cc[nH]c2c1)c1cccc2ncccc12 (stereo not shown) [Compound 17, N-(2-(dimethylamino)-2-(quinolin-5-yl)ethyl)-1H-indole-6-sulfonamide] | -10.7 | -13 | 63.5 | – | –
4 | COc1ccc2c(c1)c(C(CNS(=O)(=O)c1ccc3cc[nH]c3c1)N(C)C)cn2C (stereo not shown) [Compound 18, N-(2-(dimethylamino)-2-(5-methoxy-1-methyl-1H-indol-3-yl)ethyl)-1H-indole-6-sulfonamide] | 68 | 52.3 | 98.5 | 10 to 50 | –
5 | Cn1cc(C(CNS(=O)(=O)c2ccc3cc[nH]c3c2)N2CCC(O)CC2)c2ccccc21 (stereo not shown) [Compound 40, N-(2-(4-hydroxypiperidin-1-yl)-2-(1-methyl-1H-indol-3-yl)ethyl)-1H-indole-6-sulfonamide] | 16 | 79.7 | – | – | –
6 | CC(C)n1cc(C(CNS(=O)(=O)c2ccc3cc[nH]c3c2)N(C)C)c2ccccc21 (stereo not shown) [Compound 23, N-(2-(dimethylamino)-2-(1-isopropyl-1H-indol-3-yl)ethyl)-1H-indole-6-sulfonamide] | – | 99 | 100 | 10 to 50 | 61
7 | CN(C)C(CNS(=O)(=O)c1ccc2nc[nH]c2c1)c1cn(C)c2ccccc12 (stereo not shown) [Compound 6, N-(2-(dimethylamino)-2-(1-methyl-1H-indol-3-yl)ethyl)-1H-benzo[d]imidazole-6-sulfonamide] | 19.5 | -38 | 18.8 | – | –
8 | Cn1cc(C(CNS(=O)(=O)c2ccc3[nH]ccc3c2)N2CCCC2)c2ccccc21 (stereo not shown) [Compound 26, N-(2-(1-methyl-1H-indol-3-yl)-2-(pyrrolidin-1-yl)ethyl)-1H-indole-5-sulfonamide] | -4 | 90.6 | – | – | –
9 | Cn1cc(C(CNS(=O)(=O)c2ccc3cc[nH]c3c2)N2CCCC2)c2ncccc21 (stereo not shown) [Compound 54, N-(2-(1-methyl-1H-pyrrolo[3,2-b]pyridin-3-yl)-2-(pyrrolidin-1-yl)ethyl)-1H-indole-6-sulfonamide] | -41 | 66 | – | – | –
10 | Cn1cc(C(CNS(=O)(=O)c2ccc3cc[nH]c3c2)N2CC[C@H](O)C2)c2ccccc21 (stereo partly drawn) [Compound 43, N-(2-((S)-3-hydroxypyrrolidin-1-yl)-2-(1-methyl-1H-indol-3-yl)ethyl)-1H-indole-6-sulfonamide] | 20 | 98.6 | – | – | –
11 | COC1CCN(C(CNS(=O)(=O)c2ccc3cc[nH]c3c2)c2cn(C)c3ccccc23)CC1 (stereo not shown) [Compound 47, N-(2-(4-methoxypiperidin-1-yl)-2-(1-methyl-1H-indol-3-yl)ethyl)-1H-indole-6-sulfonamide] | 32 | 86.9 | – | – | –
12 | CC(C)n1cc(C(CNS(=O)(=O)c2ccc3[nH]ccc3c2)N(C)C)c2ccccc21 (stereo not shown) [Compound 12, N-(2-(dimethylamino)-2-(1-isopropyl-1H-indol-3-yl)ethyl)-1H-indole-5-sulfonamide] | 30 | 87.1 | 96.1 | – | –
13 | CC(C)n1cc(C(CNS(=O)(=O)c2cccc3[nH]ccc23)N(C)C)c2ccccc21 (stereo not shown) [Compound 13, N-(2-(dimethylamino)-2-(1-isopropyl-1H-indol-3-yl)ethyl)-1H-indole-4-sulfonamide] | -6 | 32.7 | 94.7 | – | –
14 | C[C@@H]1CCCN1[C@@H](CNS(=O)(=O)c1ccc2cc[nH]c2c1)c1cn(C)c2ccccc12 [Compound 55, N-((R)-2-(1-methyl-1H-indol-3-yl)-2-((R)-2-methylpyrrolidin-1-yl)ethyl)-1H-indole-6-sulfonamide] | 33 | 99.6 | – | 50 to 100 | –
15 | Cn1cc(C(CNS(=O)(=O)c2ccc3cc[nH]c3c2)N2CC[C@@H](F)C2)c2ccccc21 (stereo partly drawn) [Compound 45, N-(2-((R)-3-fluoropyrrolidin-1-yl)-2-(1-methyl-1H-indol-3-yl)ethyl)-1H-indole-6-sulfonamide] | 95 | 69.3 | – | – | –

Further lines, results first:

Row | inhibition at 25 µM [1] [%] | inhibition at 100 µM [2] [%] | inhibition at 400 µM [2] [%] | IC50 [µM] | % Inhibition of Protein Aggregation, 25 μM cmpd [1] [%] | Structure (SMILES)
16 | 63 | 97.6 | – | – | – | Cn1cc([C@@H](CNS(=O)(=O)c2ccc3cc[nH]c3c2)N2CCC2)c2ccccc21 [Compound 101, (S)-N-(2-(azetidin-1-yl)-2-(1-methyl-1H-indol-3-yl)ethyl)-1H-indole-6-sulfonamide]
17 | 98.4 | 99.7 | – | ≤ 10 | – | Cn1nc([C@@H](CNS(=O)(=O)c2ccc3cc[nH]c3c2)N2CCCC2)c2ccccc21 [Compound 89, (R)-N-(2-(1-methyl-1H-indazol-3-yl)-2-(pyrrolidin-1-yl)ethyl)-1H-indole-6-sulfonamide]
18 | 94 | 94.3 | – | – | – | Cn1cc([C@H](CNS(=O)(=O)c2ccc3cc[nH]c3c2)N2CCC2)c2ccccc21 [Compound 102, (R)-N-(2-(azetidin-1-yl)-2-(1-methyl-1H-indol-3-yl)ethyl)-1H-indole-6-sulfonamide]
19 | -10 | 42 | – | – | – | Cn1cc([C@@H](CNS(=O)(=O)c2ccc3cc[nH]c3c2)N2CCCC2)c2cccnc21 [Compound 66, (S)-N-(2-(1-methyl-1H-pyrrolo[2,3-b]pyridin-3-yl)-2-(pyrrolidin-1-yl)ethyl)-1H-indole-6-sulfonamide]
20 | 80 | 94.1 | – | – | – | CN(Cc1cncs1)[C@H](CNS(=O)(=O)c1ccc2cc[nH]c2c1)c1cn(C)c2ccccc12 [Compound 86, (S)-N-(2-(methyl(thiazol-5-ylmethyl)amino)-2-(1-methyl-1H-indol-3-yl)ethyl)-1H-indole-6-sulfonamide]
21 | 9 | 95.4 | – | – | – | C[C@H]1CCCN1[C@H](CNS(=O)(=O)c1ccc2cc[nH]c2c1)c1cn(C)c2ccccc12 [Compound 64, N-((S)-2-(1-methyl-1H-indol-3-yl)-2-((S)-2-methylpyrrolidin-1-yl)ethyl)-1H-indole-6-sulfonamide]
22 | 21 | 94.3 | – | – | – | CNC(CNS(=O)(=O)c1ccc2cc[nH]c2c1)c1cn(C)c2ccccc12 (stereo not shown) [Compound 88, N-(2-(1-methyl-1H-indol-3-yl)-2-(methylamino)ethyl)-1H-indole-6-sulfonamide]
23 | 34 | 73.3 | – | – | – | Cn1cc([C@H](CNS(=O)(=O)c2ccc3cc[nH]c3c2)N2CCCC2)c2cccnc21 [Compound 67, (R)-N-(2-(1-methyl-1H-pyrrolo[2,3-b]pyridin-3-yl)-2-(pyrrolidin-1-yl)ethyl)-1H-indole-6-sulfonamide]
24 | 62 | 98.2 | – | 10 to 50 | – | CCn1nc(C(CNS(=O)(=O)c2ccc3cc[nH]c3c2)N(C)C)c2ccccc21 (stereo not shown) [Compound 72, N-(2-(dimethylamino)-2-(1-ethyl-1H-indazol-3-yl)ethyl)-1H-indole-6-sulfonamide]
25 | 92.9 | 99.1 | – | – | – | Cn1nc([C@@H](CNS(=O)(=O)c2ccc3cc[nH]c3c2)N2CCC2)c2ccccc21 [Compound 98, (R)-N-(2-(azetidin-1-yl)-2-(1-methyl-1H-indazol-3-yl)ethyl)-1H-indole-6-sulfonamide]
26 | -56 | 21.3 | – | – | – | Cn1nc([C@H](CNS(=O)(=O)c2ccc3cc[nH]c3c2)N2CCC2)c2ccccc21 [Compound 99, (S)-N-(2-(azetidin-1-yl)-2-(1-methyl-1H-indazol-3-yl)ethyl)-1H-indole-6-sulfonamide]
27 | -15 | 65.6 | – | – | – | Cn1nc([C@H](CNS(=O)(=O)c2ccc3cc[nH]c3c2)N2CCCC2)c2ccccc21 [Compound 90, (S)-N-(2-(1-methyl-1H-indazol-3-yl)-2-(pyrrolidin-1-yl)ethyl)-1H-indole-6-sulfonamide]
28 | 57 | 99.5 | – | – | – | Cc1cccc2c(C(CNS(=O)(=O)c3ccc4cc[nH]c4c3)N(C)C)cn(C)c12 (stereo not shown) [Compound 73, N-(2-(1,7-dimethyl-1H-indol-3-yl)-2-(dimethylamino)ethyl)-1H-indole-6-sulfonamide]
29 | -10 | 99.2 | – | – | – | CO[C@@H]1CCN([C@@H](CNS(=O)(=O)c2ccc3cc[nH]c3c2)c2cn(C)c3ccccc23)C1 [Compound 75, N-((R)-2-((R)-3-methoxypyrrolidin-1-yl)-2-(1-methyl-1H-indol-3-yl)ethyl)-1H-indole-6-sulfonamide]
